Experimental data: patent publication US20250084039A1, “4-SUBSTITUTED AMINOISOQUINOLINE DERIVATIVES” (Purdue Research Foundation, priority 2016, published 2025)
Like-named read-outs stand apart in the source and are kept apart here.

Key:
[1] = molecular target: YES/YES1 (Homo sapiens (Human), UniProt P07947); assay: Reaction Biology HotSpot kinase assay; format: biochemical; settings: 500 nM compound; for inhibition at 0.5 µM: read-out: Percentage kinase inhibition YES/YES1
Outline: (§1)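 Buffer 20 mM HEPES pH 7.5 / 10 mM MgCl2 / 1 mM EGTA / 0.02% Brij35 / 0.02 mg/mL BSA / 0.1 mM Na3VO4 / 2 mM DTT / 1% DMSO. Cpd 500 nM, 20 min. [γ-33P]ATP mix at 100 μM, 2 h RT. P81 spotting; % activity remaining vs DMSO.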

[2] = molecular target: PDGFRa (Homo sapiens (Human), UniProt P16234); assay: Reaction Biology HotSpot kinase assay; format: biochemical; settings: 500 nM compound; for inhibition at 0.5 µM: read-out: Percentage kinase inhibition PDGFRa
Outline: as §1

[3] = molecular target: c-MER (Homo sapiens (Human), UniProt Q12866); assay: Reaction Biology HotSpot kinase assay; format: biochemical; settings: 500 nM compound; for inhibition at 0.5 µM: read-out: Percentage kinase inhibition c-MER
Outline: as §1

[4] = molecular target: ALK (Homo sapiens (Human), UniProt Q9UM73); assay: Reaction Biology HotSpot kinase assay; format: biochemical; settings: 500 nM compound; for inhibition at 0.5 µM: read-out: Percentage kinase inhibition ALK
Outline: as §1

[5] = molecular target: FGR (Homo sapiens (Human), UniProt P09769); assay: Reaction Biology HotSpot kinase assay; format: biochemical; settings: 500 nM compound; for inhibition at 0.5 µM: read-out: Percentage kinase inhibition FGR
Outline: as §1

[6] = molecular target: EPHA5 (Homo sapiens (Human), UniProt P54756); assay: Reaction Biology HotSpot kinase assay; format: biochemical; settings: 500 nM compound; for inhibition at 0.5 µM: read-out: Percentage kinase inhibition EPHA5
Outline: as §1

[7] = molecular target: FLT1/VEGFR1 (Homo sapiens (Human), UniProt P17948); assay: Reaction Biology HotSpot kinase assay; format: biochemical; settings: 500 nM compound; for inhibition at 0.5 µM: read-out: Percentage kinase inhibition FLT1/VEGFR1
Outline: as §1

[8] = molecular target: ROS/ROS1 (Homo sapiens (Human), UniProt P08922); assay: Reaction Biology HotSpot kinase assay; format: biochemical; settings: 500 nM compound; for inhibition at 0.5 µM: read-out: Percentage kinase inhibition ROS/ROS1
Outline: as §1

[9] = molecular target: PKCa (Homo sapiens (Human), UniProt P17252); assay: Reaction Biology HotSpot kinase assay; format: biochemical; settings: 500 nM compound; for inhibition at 0.5 µM: read-out: Percentage kinase inhibition PKCa
Outline: as §1

[10] = molecular target: EPHB2 (Homo sapiens (Human), UniProt P29323); assay: Reaction Biology HotSpot kinase assay; format: biochemical; settings: 500 nM compound; for inhibition at 0.5 µM: read-out: Percentage kinase inhibition EPHB2
Sequence of EPHB2 (P29323 19-1055): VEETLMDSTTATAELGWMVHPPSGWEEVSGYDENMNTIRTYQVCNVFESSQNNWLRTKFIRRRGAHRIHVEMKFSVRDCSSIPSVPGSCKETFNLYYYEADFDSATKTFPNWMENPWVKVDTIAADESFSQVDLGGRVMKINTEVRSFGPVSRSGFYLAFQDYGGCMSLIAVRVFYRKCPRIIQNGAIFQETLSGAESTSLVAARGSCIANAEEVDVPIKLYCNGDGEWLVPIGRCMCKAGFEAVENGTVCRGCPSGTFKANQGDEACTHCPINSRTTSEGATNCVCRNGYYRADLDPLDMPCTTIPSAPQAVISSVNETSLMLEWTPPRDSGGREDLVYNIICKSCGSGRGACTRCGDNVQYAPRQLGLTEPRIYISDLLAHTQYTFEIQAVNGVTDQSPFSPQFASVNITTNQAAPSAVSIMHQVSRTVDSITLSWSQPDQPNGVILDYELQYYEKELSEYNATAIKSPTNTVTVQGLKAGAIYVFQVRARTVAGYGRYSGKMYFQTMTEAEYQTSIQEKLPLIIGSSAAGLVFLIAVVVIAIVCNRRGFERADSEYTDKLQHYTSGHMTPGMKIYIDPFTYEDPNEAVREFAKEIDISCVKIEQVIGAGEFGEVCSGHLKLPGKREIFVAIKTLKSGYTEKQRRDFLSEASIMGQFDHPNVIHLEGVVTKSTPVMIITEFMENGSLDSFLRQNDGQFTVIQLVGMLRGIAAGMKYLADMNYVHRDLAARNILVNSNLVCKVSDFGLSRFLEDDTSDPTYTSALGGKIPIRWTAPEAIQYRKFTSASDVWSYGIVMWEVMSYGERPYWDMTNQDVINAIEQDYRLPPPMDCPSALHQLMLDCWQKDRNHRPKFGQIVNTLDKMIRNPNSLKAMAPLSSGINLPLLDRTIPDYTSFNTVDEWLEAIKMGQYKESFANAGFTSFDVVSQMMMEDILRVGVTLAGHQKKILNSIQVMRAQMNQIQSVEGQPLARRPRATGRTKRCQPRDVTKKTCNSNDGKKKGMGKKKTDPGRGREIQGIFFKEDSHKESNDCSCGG
Outline: as §1

[11] = molecular target: TRKB (Homo sapiens (Human), UniProt Q16620); assay: Reaction Biology HotSpot kinase assay; format: biochemical; settings: 500 nM compound; for inhibition at 0.5 µM: read-out: Percentage kinase inhibition TRKB
Outline: as §1

[12] = molecular target: EGFR (Homo sapiens (Human), UniProt P00533); assay: Reaction Biology HotSpot kinase assay; format: biochemical; settings: 500 nM compound; for inhibition at 0.5 µM: read-out: Percentage kinase inhibition EGFR
Outline: as §1

[13] = molecular target: AXL (Homo sapiens (Human), UniProt P30530); assay: Reaction Biology HotSpot kinase assay; format: biochemical; settings: 500 nM compound; for inhibition at 0.5 µM: read-out: Percentage kinase inhibition AXL
Outline: (§2)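 Compounds were screened at one concentration, 500 nM, in a radiometric kinase reaction. After a 20-minute preincubation with enzyme and substrate in pH 7.5 HEPES buffer (1% DMSO), the mixture received 100 μM ATP containing [γ-33P]ATP and was left 2 h at room temperature.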

[14] = molecular target: ERBB2/HER2 (Homo sapiens (Human), UniProt P04626); assay: Reaction Biology HotSpot kinase assay; format: biochemical; settings: 500 nM compound; for inhibition at 0.5 µM: read-out: Percentage kinase inhibition ERBB2/HER2
Outline: as §1

[15] = molecular target: BTK (Homo sapiens (Human), UniProt Q06187); assay: Reaction Biology HotSpot kinase assay; format: biochemical; settings: 500 nM compound; for inhibition at 0.5 µM: read-out: Percentage kinase inhibition BTK
Outline: as §1

[16] = molecular target: FLT4/VEGFR3 (Homo sapiens (Human), UniProt P35916); assay: Reaction Biology HotSpot kinase assay; format: biochemical; settings: 500 nM compound; for inhibition at 0.5 µM: read-out: Percentage kinase inhibition FLT4/VEGFR3
Sequence of FLT4/VEGFR3 (P35916 25-1363): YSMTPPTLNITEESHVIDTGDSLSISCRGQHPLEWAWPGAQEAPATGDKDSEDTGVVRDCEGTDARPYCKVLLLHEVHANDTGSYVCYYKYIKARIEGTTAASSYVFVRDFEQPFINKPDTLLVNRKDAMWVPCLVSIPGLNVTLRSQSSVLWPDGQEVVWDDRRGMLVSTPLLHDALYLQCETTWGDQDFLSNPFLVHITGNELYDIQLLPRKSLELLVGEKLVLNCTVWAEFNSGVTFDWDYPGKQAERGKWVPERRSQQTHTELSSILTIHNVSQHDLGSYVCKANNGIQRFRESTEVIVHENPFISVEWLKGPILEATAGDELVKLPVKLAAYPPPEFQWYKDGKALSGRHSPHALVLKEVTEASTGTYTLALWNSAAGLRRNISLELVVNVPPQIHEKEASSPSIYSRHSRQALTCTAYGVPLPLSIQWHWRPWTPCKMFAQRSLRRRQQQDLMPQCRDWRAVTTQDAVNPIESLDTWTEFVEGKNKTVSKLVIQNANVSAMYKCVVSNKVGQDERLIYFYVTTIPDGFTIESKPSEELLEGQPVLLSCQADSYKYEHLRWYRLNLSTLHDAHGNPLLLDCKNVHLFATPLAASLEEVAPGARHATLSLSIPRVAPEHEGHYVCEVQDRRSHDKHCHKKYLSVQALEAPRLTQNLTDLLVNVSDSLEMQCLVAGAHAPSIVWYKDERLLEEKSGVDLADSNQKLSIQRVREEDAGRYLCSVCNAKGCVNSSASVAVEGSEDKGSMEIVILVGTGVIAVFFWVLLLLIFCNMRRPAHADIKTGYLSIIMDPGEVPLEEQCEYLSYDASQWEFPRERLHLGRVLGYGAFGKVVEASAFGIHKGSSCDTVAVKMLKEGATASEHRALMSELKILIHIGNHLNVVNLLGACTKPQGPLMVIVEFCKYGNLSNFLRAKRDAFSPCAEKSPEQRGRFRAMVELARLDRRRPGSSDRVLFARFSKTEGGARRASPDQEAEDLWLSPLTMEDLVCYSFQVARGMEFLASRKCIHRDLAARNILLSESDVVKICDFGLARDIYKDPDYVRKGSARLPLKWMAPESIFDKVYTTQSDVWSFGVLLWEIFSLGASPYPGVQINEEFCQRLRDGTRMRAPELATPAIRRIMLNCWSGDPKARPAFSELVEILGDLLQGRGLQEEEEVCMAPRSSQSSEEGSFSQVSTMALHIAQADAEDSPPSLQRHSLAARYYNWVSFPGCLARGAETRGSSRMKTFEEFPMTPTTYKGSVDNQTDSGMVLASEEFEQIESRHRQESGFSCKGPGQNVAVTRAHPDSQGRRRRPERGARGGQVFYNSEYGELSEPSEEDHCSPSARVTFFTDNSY
Outline: as §1

[17] = molecular target: FLT3 (Homo sapiens (Human), UniProt P36888); assay: Reaction Biology HotSpot kinase assay; format: biochemical; settings: for inhibition at 0.5 µM: read-out: % inhibition of FLT3 activity
Outline: as §2

[18] = molecular target: BRAF (Homo sapiens (Human), UniProt P15056); assay: Reaction Biology HotSpot kinase assay; format: biochemical; settings: 500 nM compound; for inhibition at 0.5 µM: read-out: Percentage kinase inhibition BRAF
Outline: as §2

[19] = molecular target: c-Met (Homo sapiens (Human), UniProt P08581); assay: Reaction Biology HotSpot kinase assay; format: biochemical; settings: 500 nM compound; for inhibition at 0.5 µM: read-out: Percentage kinase inhibition c-Met
Outline: as §1

[20] = molecular target: FGFR1 (Homo sapiens (Human), UniProt P11362); assay: Reaction Biology HotSpot kinase assay; format: biochemical; settings: 500 nM compound; for inhibition at 0.5 µM: read-out: Percentage kinase inhibition FGFR1
Outline: as §2

[21] = molecular target: AKT1 (Homo sapiens (Human), UniProt P31749); assay: Reaction Biology HotSpot kinase assay; format: biochemical; settings: 500 nM compound; for inhibition at 0.5 µM: read-out: Percentage kinase inhibition AKT1
Sequence of AKT1 (P31749 whole entry): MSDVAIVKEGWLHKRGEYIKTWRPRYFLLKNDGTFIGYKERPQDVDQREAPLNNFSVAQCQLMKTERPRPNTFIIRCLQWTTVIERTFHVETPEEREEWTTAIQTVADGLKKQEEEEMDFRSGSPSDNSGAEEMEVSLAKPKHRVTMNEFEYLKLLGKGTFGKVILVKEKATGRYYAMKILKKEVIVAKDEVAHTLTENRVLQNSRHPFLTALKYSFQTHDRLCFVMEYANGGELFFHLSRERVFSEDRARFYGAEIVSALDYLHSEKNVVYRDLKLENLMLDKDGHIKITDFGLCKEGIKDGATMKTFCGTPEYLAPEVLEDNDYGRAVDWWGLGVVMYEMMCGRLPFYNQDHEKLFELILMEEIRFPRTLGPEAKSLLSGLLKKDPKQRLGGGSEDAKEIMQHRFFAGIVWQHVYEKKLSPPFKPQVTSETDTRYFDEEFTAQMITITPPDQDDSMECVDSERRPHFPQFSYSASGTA
Outline: as §2

[22] = molecular target: TIE2/TEK (Homo sapiens (Human), UniProt Q02763); assay: Reaction Biology HotSpot kinase assay; format: biochemical; settings: 500 nM compound; for inhibition at 0.5 µM: read-out: Percentage kinase inhibition TIE2/TEK
Sequence of TIE2/TEK (Q02763 23-1124): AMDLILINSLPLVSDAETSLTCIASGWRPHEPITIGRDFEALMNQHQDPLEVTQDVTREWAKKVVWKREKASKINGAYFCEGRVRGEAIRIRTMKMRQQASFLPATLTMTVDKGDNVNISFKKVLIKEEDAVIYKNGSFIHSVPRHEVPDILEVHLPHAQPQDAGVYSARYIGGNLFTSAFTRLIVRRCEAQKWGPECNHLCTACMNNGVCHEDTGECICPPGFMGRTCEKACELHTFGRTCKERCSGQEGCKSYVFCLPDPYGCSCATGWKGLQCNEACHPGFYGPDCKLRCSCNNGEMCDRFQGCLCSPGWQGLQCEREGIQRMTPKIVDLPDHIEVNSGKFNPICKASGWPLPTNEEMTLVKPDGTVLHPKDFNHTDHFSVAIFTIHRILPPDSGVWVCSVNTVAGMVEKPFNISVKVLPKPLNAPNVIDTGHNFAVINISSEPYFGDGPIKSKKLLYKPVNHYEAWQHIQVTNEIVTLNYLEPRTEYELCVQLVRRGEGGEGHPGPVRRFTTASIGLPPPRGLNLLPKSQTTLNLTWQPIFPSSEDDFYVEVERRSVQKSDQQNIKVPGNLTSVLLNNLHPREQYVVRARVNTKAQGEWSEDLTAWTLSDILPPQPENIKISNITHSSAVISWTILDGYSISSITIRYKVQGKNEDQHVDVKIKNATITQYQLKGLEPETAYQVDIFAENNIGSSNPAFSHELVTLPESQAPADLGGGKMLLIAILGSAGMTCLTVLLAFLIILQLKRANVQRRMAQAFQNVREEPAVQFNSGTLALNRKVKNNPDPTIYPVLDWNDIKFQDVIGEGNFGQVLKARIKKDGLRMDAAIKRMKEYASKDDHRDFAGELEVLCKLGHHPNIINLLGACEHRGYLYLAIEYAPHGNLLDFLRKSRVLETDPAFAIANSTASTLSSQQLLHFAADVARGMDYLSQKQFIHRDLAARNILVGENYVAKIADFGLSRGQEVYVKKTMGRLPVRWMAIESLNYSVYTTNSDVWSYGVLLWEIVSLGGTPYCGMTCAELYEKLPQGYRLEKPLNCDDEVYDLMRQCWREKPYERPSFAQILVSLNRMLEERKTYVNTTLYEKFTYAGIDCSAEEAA
Outline: as §1

[23] = molecular target: KDR/VEGFR2 (Homo sapiens (Human), UniProt P35968); assay: Reaction Biology HotSpot kinase assay; format: biochemical; settings: 500 nM compound; for inhibition at 0.5 µM: read-out: Percentage kinase inhibition KDR/VEGFR2
Outline: as §1

[24] = test system: MOLM14; assay: IC50 determination (proliferation assay, CellTiter-Blue); format: cell-based
Outline: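 MOLM14 and MV4-11 cells seeded about 18 h before compound addition (DMSO-diluted), then 72 h exposure.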

Cc1ccc(C(=O)Nc2ccc(CN3CCN(C)CC3)c(C(F)(F)F)c2)cc1C#Cc1c(N)ncc2ccc(Cl)cc12 [HSN286]
inhibition at 0.5 µM [1]: 100%
inhibition at 0.5 µM [2]: 93%
inhibition at 0.5 µM [3]: 0%
inhibition at 0.5 µM [4]: 0%
inhibition at 0.5 µM [5]: 100%
inhibition at 0.5 µM [6]: 96%
inhibition at 0.5 µM [7]: 86%
inhibition at 0.5 µM [8]: 10%
inhibition at 0.5 µM [9]: 5%
inhibition at 0.5 µM [10]: 96%
inhibition at 0.5 µM [11]: 79%
inhibition at 0.5 µM [12]: 44%
inhibition at 0.5 µM [13]: 3%
inhibition at 0.5 µM [14]: 25%
inhibition at 0.5 µM [15]: 41%
inhibition at 0.5 µM [16]: 98%
inhibition at 0.5 µM [17]: 97%
inhibition at 0.5 µM [18]: 97%
inhibition at 0.5 µM [19]: 20%
inhibition at 0.5 µM [20]: 98%
inhibition at 0.5 µM [21]: 0%
inhibition at 0.5 µM [22]: 97%
inhibition at 0.5 µM [23]: 95%
IC50 [24]: 0.72 ± 0.02 nM
IC50 ([24]; Homo sapiens, MOLM-14): 0.7 nM

CN(C)CC(O)CNC(=O)c1ccc(C#Cc2c(N)ncc3ccc(Cl)cc23)cc1 (stereo not shown) [HSM1702]
Percentage kinase inhibition YES/YES1 [1]: 13%
Percentage kinase inhibition PDGFRa [2]: 48%
Percentage kinase inhibition c-MER [3]: 6%
Percentage kinase inhibition ALK [4]: 7%
Percentage kinase inhibition FGR [5]: 6%
Percentage kinase inhibition EPHA5 [6]: 4%
Percentage kinase inhibition FLT1/VEGFR1 [7]: 0%
Percentage kinase inhibition ROS/ROS1 [8]: 15%
Percentage kinase inhibition PKCa [9]: 3%
Percentage kinase inhibition EPHB2 [10]: 5%
Percentage kinase inhibition TRKB [11]: 40%
Percentage kinase inhibition EGFR [12]: 0%
Percentage kinase inhibition AXL [13]: 0%
Percentage kinase inhibition ERBB2/HER2 [14]: 0%
Percentage kinase inhibition BTK [15]: 5%
Percentage kinase inhibition FLT4/VEGFR3 [16]: 10%
% inhibition of FLT3 activity ([17]; 500 nM compound): 66%
Percentage kinase inhibition BRAF [18]: 3%
Percentage kinase inhibition c-Met [19]: 4%
Percentage kinase inhibition FGFR1 [20]: 11%
Percentage kinase inhibition AKT1 [21]: 13%
Percentage kinase inhibition TIE2/TEK [22]: 8%
Percentage kinase inhibition KDR/VEGFR2 [23]: 9%
IC50 [24]: 102 ± 11 nM

Cc1ccc(C(=O)Nc2ccc(CN3CCN(C)CC3)c(C(F)(F)F)c2)cc1C#Cc1cnc(N)c2ccccc12 [HSN334, 3-((1-aminoisoquinolin-4-yl)ethynyl)-4-methyl-N-(4-((4-methylpiperazin-1-yl)methyl)-3-(trifluoromethyl)phenyl)benzamide]
inhibition at 0.5 µM [1]: 100%
inhibition at 0.5 µM [2]: 86%
inhibition at 0.5 µM [3]: 0%
inhibition at 0.5 µM [4]: 0%
inhibition at 0.5 µM [5]: 100%
inhibition at 0.5 µM [6]: 97%
inhibition at 0.5 µM [7]: 79%
inhibition at 0.5 µM [8]: 0%
inhibition at 0.5 µM [9]: 0%
inhibition at 0.5 µM [10]: 98%
inhibition at 0.5 µM [11]: 41%
inhibition at 0.5 µM [12]: 61%
inhibition at 0.5 µM [13]: 5%
inhibition at 0.5 µM [14]: 31%
inhibition at 0.5 µM [15]: 46%
inhibition at 0.5 µM [16]: 79%
% inhibition of FLT3 activity [17]: 100%
inhibition at 0.5 µM [17]: 99%
inhibition at 0.5 µM [18]: 96%
inhibition at 0.5 µM [19]: 14%
inhibition at 0.5 µM [20]: 96%
inhibition at 0.5 µM [21]: 0%
inhibition at 0.5 µM [22]: 99%
inhibition at 0.5 µM [23]: 94%
proliferation inhibition in words, MOLM-14 [24]: potent proliferation inhibitors
IC50 ([24]; Homo sapiens, MOLM-14): 1.61 ± 0.02 nM

COc1cc2nc(N)nc(C#Cc3cc(C(=O)Nc4ccc(CN5CCN(C)CC5)c(C(F)(F)F)c4)ccc3C)c2cc1OC [HSN325]
inhibition at 0.5 µM [1]: 41%
inhibition at 0.5 µM [2]: 53%
inhibition at 0.5 µM [3]: 0%
inhibition at 0.5 µM [4]: 2%
inhibition at 0.5 µM [5]: 39%
inhibition at 0.5 µM [6]: 30%
inhibition at 0.5 µM [7]: 42%
inhibition at 0.5 µM [8]: 0%
inhibition at 0.5 µM [9]: 5%
inhibition at 0.5 µM [10]: 3%
inhibition at 0.5 µM [11]: 0%
inhibition at 0.5 µM [12]: 0%
inhibition at 0.5 µM [13]: 3%
inhibition at 0.5 µM [14]: 4%
inhibition at 0.5 µM [15]: 4%
inhibition at 0.5 µM [16]: 42%
% inhibition of FLT3 activity ([17]; 500 nM compound): 34%
inhibition at 0.5 µM ([17]; 500 nM compound): 33%
inhibition at 0.5 µM [18]: 38%
inhibition at 0.5 µM [19]: 15%
inhibition at 0.5 µM [20]: 58%
inhibition at 0.5 µM [21]: 0%
inhibition at 0.5 µM [22]: 47%
inhibition at 0.5 µM [23]: 90%
IC50 ([24]; Homo sapiens, MOLM-14): 456 ± 15 nM

Cc1ccc(C(=O)Nc2ccc(CN3CCN(C)CC3)c(C(F)(F)F)c2)cc1C#Cc1cc(N)nc2ccccc12 [HSN285]
inhibition at 0.5 µM [1]: 0%
inhibition at 0.5 µM [2]: 30%
inhibition at 0.5 µM [3]: 3%
inhibition at 0.5 µM [4]: 1%
inhibition at 0.5 µM [5]: 0%
inhibition at 0.5 µM [6]: 0%
inhibition at 0.5 µM [7]: 3%
inhibition at 0.5 µM [8]: 0%
inhibition at 0.5 µM [9]: 6%
inhibition at 0.5 µM [10]: 3%
inhibition at 0.5 µM [11]: 0%
inhibition at 0.5 µM [12]: 0%
inhibition at 0.5 µM [13]: 0%
inhibition at 0.5 µM [14]: 0%
inhibition at 0.5 µM [15]: 0%
inhibition at 0.5 µM [16]: 6%
inhibition at 0.5 µM ([17]; 500 nM compound): 28%
inhibition at 0.5 µM [18]: 64%
inhibition at 0.5 µM [19]: 23%
inhibition at 0.5 µM [20]: 0%
inhibition at 0.5 µM [21]: 0%
inhibition at 0.5 µM [22]: 0%
inhibition at 0.5 µM [23]: 15%
IC50 ([24]; Homo sapiens, MOLM-14): 415 ± 6.9 nM
